{
  "source": "ChEMBL document CHEMBL2029340",
  "about": "(J Med Chem, 2012)",
  "key": {"Influenza A virus [1]": {"tested_on": "Influenza A virus", "test": "Antiviral activity against amantidine-resistant Influenza A virus A/WSN/33(H1N1) infected in MDCK cells assessed as inhibition of virus-induced cytopathic effects after 3 days by CCK-8 assay", "type": "functional, organism-based", "conditions": "A/WSN/1933(H1N1), 72 h"}, "Influenza A virus [2]": {"tested_on": "Influenza A virus", "test": "Antiviral activity against Influenza A virus A/WSN/1933 (H1N1) harboring wild type nucleoprotein 52Y infected in MDCK cells assessed as reduction of nucleoprotein antigen level after 3 days", "type": "functional, organism-based", "conditions": "72 h"}, "Influenza A virus [3]": {"tested_on": "Influenza A virus", "test": "Antiviral activity against amantidine-resistant Influenza A virus A/WSN/33(H1N1) infected in MDCK cells assessed as reduction in plaque formation at 0.3 uM after 3 days by microscopy", "type": "functional, organism-based", "conditions": "A/WSN/1933(H1N1)"}, "Influenza A virus [4]": {"tested_on": "Influenza A virus", "test": "Antiviral activity against amantidine-resistant Influenza A virus A/WSN/33(H1N1) infected in MDCK cells assessed as reduction in plaque formation after 3 days by microscopy", "type": "functional, organism-based", "conditions": "A/WSN/1933(H1N1)"}, "Influenza A virus [5]": {"tested_on": "Influenza A virus", "test": "Antiviral activity against Influenza A virus A/WSN/1933 (H1N1) harboring nucleoprotein 52H mutant infected in MDCK cells assessed as reduction of nucleoprotein antigen level after 3 days", "type": "functional, organism-based"}, "Influenza A virus [6]": {"tested_on": "Influenza A virus", "test": "Antiviral activity against amantidine-resistant Influenza A virus A/WSN/33(H1N1) infected in MDCK cells assessed as reduction in plaque formation after 3 days by microplate counting of infectious particles assay", "type": "functional, organism-based", "conditions": "A/WSN/1933(H1N1), 72 h"}, "Influenza A virus [7]": {"tested_on": "Influenza A virus", "test": "Antiviral activity against tamiflu-resistant Influenza A virus A/WSN/33 (H1N1) harboring neuraminidase 274Y mutant infected in MDCK cells assessed as reduction of nucleoprotein antigen level after 3 days", "type": "functional, organism-based, A/WSN/1933(H1N1)"}, "Influenza A virus [8]": {"tested_on": "Influenza A virus", "test": "Antiviral activity against amantidine-resistant Influenza A virus A/WSN/33(H1N1) infected in MDCK cells assessed as reduction in plaque formation at 1 uM after 3 days by microscopy", "type": "functional, organism-based", "conditions": "A/WSN/1933(H1N1)"}},
  "note": "Calls of active or inactive are those of the source. No cut-off for these calls is given here.",
  "data": [
    {"compound": "CC(=O)c1ccccc1-n1nnc(C)c1C(=O)N1CCN(c2ccc([N+](=O)[O-])cc2Cl)CC1", "values": [
      {"measurement": "IC50", "setting": "Influenza A virus [1]", "result": 13.7, "unit": "µM"}
    ]},
    {"compound": "Cc1[nH]nc(-c2ccccc2Cl)c1C(=O)N1CCN(c2ccc([N+](=O)[O-])cc2Cl)CC1", "values": [
      {"measurement": "IC50", "setting": "Influenza A virus [1]", "result": 0.72, "unit": "µM"}
    ]},
    {"compound": "COc1cccc(OC)c1-n1nnc(C)c1C(=O)N1CCN(c2ccc([N+](=O)[O-])cc2Cl)CC1", "values": [
      {"measurement": "IC50", "setting": "Influenza A virus [1]", "result": 1.34, "unit": "µM"}
    ]},
    {"compound": "CCc1nnn(-c2ccccc2OC)c1C(=O)N1CCN(c2ccc([N+](=O)[O-])cc2Cl)CC1", "values": [
      {"measurement": "IC50", "setting": "Influenza A virus [1]", "result": "> 50", "unit": "µM"}
    ]},
    {"compound": "Cc1nnn(-c2ccccc2Cl)c1C(=O)N1CCN(c2ccc([N+](=O)[O-])cc2Cl)CC1", "values": [
      {"measurement": "IC50", "setting": "Influenza A virus [1]", "result": 1.2, "unit": "µM"}
    ]},
    {"compound": "Cc1nnn(-c2cccc(Cl)c2)c1C(=O)N1CCN(c2ccc([N+](=O)[O-])cc2Cl)CC1", "values": [
      {"measurement": "IC50", "setting": "Influenza A virus [1]", "result": 4.89, "unit": "µM"}
    ]},
    {"compound": "COc1ccccc1-n1nnc(C)c1C(=O)N1CCN(c2ccccc2)CC1", "values": [
      {"measurement": "IC50", "setting": "Influenza A virus [1]", "result": "> 50", "unit": "µM"}
    ]},
    {"compound": "Cc1ccccc1-n1nnc(C)c1C(=O)N1CCN(c2ccc([N+](=O)[O-])cc2Cl)CC1", "values": [
      {"measurement": "IC50", "setting": "Influenza A virus [1]", "result": 2.4, "unit": "µM"}
    ]},
    {"compound": "COc1cc([N+](=O)[O-])ccc1N1CCN(C(=O)c2c(C)nnn2-c2ccccc2OC)CC1", "values": [
      {"measurement": "IC50", "setting": "Influenza A virus [1]", "result": "> 50", "unit": "µM"}
    ]},
    {"compound": "COc1ccccc1-c1ccccc1C(=O)N1CCN(c2ccc([N+](=O)[O-])cc2Cl)CC1", "values": [
      {"measurement": "IC50", "setting": "Influenza A virus [1]", "result": 1.57, "unit": "µM"}
    ]},
    {"compound": "Cc1onc(-c2ccccc2)c1C(=O)N1CCN(c2ccc([N+](=O)[O-])cc2Cl)CC1", "note": "[NUCLEOZIN]", "values": [
      {"measurement": "IC50", "setting": "Influenza A virus [2]", "result": 0.49, "unit": "µM"},
      {"measurement": "Activity", "setting": "Influenza A virus [3]", "result": "Active"},
      {"measurement": "IC50", "setting": "Influenza A virus [1]", "result": 0.32, "unit": "µM"},
      {"measurement": "Activity", "setting": "Influenza A virus [4]", "result": "Dose-dependent effect"},
      {"measurement": "IC50", "setting": "Influenza A virus [5]", "result": "> 50", "unit": "µM"},
      {"measurement": "IC50", "setting": "Influenza A virus [6]", "result": 0.1, "unit": "µM"},
      {"measurement": "IC50", "setting": "Influenza A virus [7]", "result": 0.66, "unit": "µM"}
    ]},
    {"compound": "COc1cccc(-n2nnc(C)c2C(=O)N2CCN(c3ccc([N+](=O)[O-])cc3Cl)CC2)c1", "values": [
      {"measurement": "IC50", "setting": "Influenza A virus [1]", "result": 5.35, "unit": "µM"}
    ]},
    {"compound": "Cc1nnn(-c2ccc(Cl)cc2)c1C(=O)N1CCN(c2ccc([N+](=O)[O-])cc2Cl)CC1", "values": [
      {"measurement": "IC50", "setting": "Influenza A virus [1]", "result": 4.93, "unit": "µM"}
    ]},
    {"compound": "COc1ccccc1-n1nnc(C)c1C(=O)N1CCN(c2ccccc2Cl)CC1", "values": [
      {"measurement": "IC50", "setting": "Influenza A virus [1]", "result": 48.1, "unit": "µM"}
    ]},
    {"compound": "COc1ccccc1-n1nncc1C(=O)N1CCN(c2ccc([N+](=O)[O-])cc2Cl)CC1", "values": [
      {"measurement": "IC50", "setting": "Influenza A virus [1]", "result": 8.36, "unit": "µM"}
    ]},
    {"compound": "COc1ccc(-n2nnc(C)c2C(=O)N2CCN(c3ccc([N+](=O)[O-])cc3Cl)CC2)cc1", "values": [
      {"measurement": "IC50", "setting": "Influenza A virus [1]", "result": 5.61, "unit": "µM"}
    ]},
    {"compound": "Cc1noc(-c2ccccc2)c1C(=O)N1CCN(c2ccc([N+](=O)[O-])cc2Cl)CC1", "values": [
      {"measurement": "IC50", "setting": "Influenza A virus [1]", "result": 4.83, "unit": "µM"}
    ]},
    {"compound": "Cc1nnn(-c2ccccc2O)c1C(=O)N1CCN(c2ccc([N+](=O)[O-])cc2Cl)CC1", "values": [
      {"measurement": "IC50", "setting": "Influenza A virus [1]", "result": 1.58, "unit": "µM"}
    ]},
    {"compound": "COc1ccccc1-n1nnc(C)c1C(=O)N1CCCN(c2ccc([N+](=O)[O-])cc2Cl)CC1", "values": [
      {"measurement": "IC50", "setting": "Influenza A virus [1]", "result": 35.5, "unit": "µM"}
    ]},
    {"compound": "O=C(c1ccccc1-c1ccccc1)N1CCN(c2ccc([N+](=O)[O-])cc2Cl)CC1", "values": [
      {"measurement": "IC50", "setting": "Influenza A virus [1]", "result": 5.24, "unit": "µM"}
    ]},
    {"compound": "CCOc1ccccc1-n1nnc(C)c1C(=O)N1CCN(c2ccc([N+](=O)[O-])cc2Cl)CC1", "values": [
      {"measurement": "IC50", "setting": "Influenza A virus [1]", "result": 3.22, "unit": "µM"}
    ]},
    {"compound": "NC12CC3CC(CC(C3)C1)C2", "note": "[AMANTADINE]", "values": [
      {"measurement": "IC50", "setting": "Influenza A virus [1]", "result": "> 50", "unit": "µM"}
    ]},
    {"compound": "Cc1nnn(-c2ccccc2)c1C(=O)N1CCN(c2ccc([N+](=O)[O-])cc2Cl)CC1", "values": [
      {"measurement": "IC50", "setting": "Influenza A virus [1]", "result": 3.13, "unit": "µM"}
    ]},
    {"compound": "COc1ccccc1-n1nnc(C)c1C(=O)N1CCN(c2ccc([N+](=O)[O-])cc2)CC1", "values": [
      {"measurement": "IC50", "setting": "Influenza A virus [1]", "result": 17, "unit": "µM"}
    ]},
    {"compound": "COc1ccccc1-n1nnc(C)c1C(=O)N1CCN(c2ccc([N+](=O)[O-])cc2Cl)CC1", "values": [
      {"measurement": "IC50", "setting": "Influenza A virus [2]", "result": 1.4, "unit": "µM"},
      {"measurement": "Activity", "setting": "Influenza A virus [3]", "result": "Active"},
      {"measurement": "Activity", "setting": "Influenza A virus [8]", "result": "Active"},
      {"measurement": "IC50", "setting": "Influenza A virus [1]", "result": 0.68, "unit": "µM"},
      {"measurement": "IC50", "setting": "Influenza A virus [5]", "result": "> 50", "unit": "µM"},
      {"measurement": "IC50", "setting": "Influenza A virus [6]", "result": 0.23, "unit": "µM"},
      {"measurement": "IC50", "setting": "Influenza A virus [7]", "result": 1.11, "unit": "µM"}
    ]},
    {"compound": "Cc1nnn(-c2ccccc2OC(C)C)c1C(=O)N1CCN(c2ccc([N+](=O)[O-])cc2Cl)CC1", "values": [
      {"measurement": "IC50", "setting": "Influenza A virus [1]", "result": 8.42, "unit": "µM"}
    ]},
    {"compound": "Cc1[nH]nc(-c2ccccc2)c1C(=O)N1CCN(c2ccc([N+](=O)[O-])cc2Cl)CC1", "values": [
      {"measurement": "IC50", "setting": "Influenza A virus [1]", "result": 3.38, "unit": "µM"}
    ]},
    {"compound": "COc1ccccc1-c1onc(C)c1C(=O)N1CCN(c2ccc([N+](=O)[O-])cc2Cl)CC1", "values": [
      {"measurement": "IC50", "setting": "Influenza A virus [1]", "result": 0.71, "unit": "µM"}
    ]}
  ]
}
